The target in one test is Adenosine receptor A2a (Homo sapiens, UniProt P29274).
Test [1] deals with T1, Alpha-1A adrenergic receptor (Homo sapiens, UniProt P35348).
T1 sequence (P35348 whole entry): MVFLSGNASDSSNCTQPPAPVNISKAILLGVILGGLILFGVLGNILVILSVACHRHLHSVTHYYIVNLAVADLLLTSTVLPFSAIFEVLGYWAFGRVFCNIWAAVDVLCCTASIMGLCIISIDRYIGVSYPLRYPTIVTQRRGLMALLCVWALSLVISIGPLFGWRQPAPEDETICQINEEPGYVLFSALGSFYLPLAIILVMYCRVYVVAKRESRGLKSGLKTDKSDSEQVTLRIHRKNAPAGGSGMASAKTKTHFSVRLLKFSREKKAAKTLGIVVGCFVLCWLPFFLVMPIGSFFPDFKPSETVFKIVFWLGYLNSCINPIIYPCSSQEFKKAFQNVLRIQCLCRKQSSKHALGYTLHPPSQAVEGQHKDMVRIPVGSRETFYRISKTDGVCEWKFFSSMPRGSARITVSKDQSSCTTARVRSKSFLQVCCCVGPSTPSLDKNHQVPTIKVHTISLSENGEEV
The class given is functional, cell-based.

Test [2] concerns the target T2, Type-1 angiotensin II receptor (Homo sapiens, UniProt P30556).
T2 sequence (P30556 whole entry): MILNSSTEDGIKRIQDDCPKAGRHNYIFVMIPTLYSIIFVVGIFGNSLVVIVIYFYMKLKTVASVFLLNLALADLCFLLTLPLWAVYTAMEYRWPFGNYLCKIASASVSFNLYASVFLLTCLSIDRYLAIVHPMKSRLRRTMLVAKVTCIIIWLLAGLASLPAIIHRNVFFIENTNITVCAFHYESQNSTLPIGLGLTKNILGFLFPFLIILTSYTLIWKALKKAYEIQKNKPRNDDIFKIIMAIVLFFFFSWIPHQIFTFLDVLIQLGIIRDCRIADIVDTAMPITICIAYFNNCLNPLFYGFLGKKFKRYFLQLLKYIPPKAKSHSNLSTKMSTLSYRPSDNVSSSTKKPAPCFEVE

Another test addresses T3, Estrogen receptor (Homo sapiens, UniProt P03372).
T3 sequence (P03372 whole entry): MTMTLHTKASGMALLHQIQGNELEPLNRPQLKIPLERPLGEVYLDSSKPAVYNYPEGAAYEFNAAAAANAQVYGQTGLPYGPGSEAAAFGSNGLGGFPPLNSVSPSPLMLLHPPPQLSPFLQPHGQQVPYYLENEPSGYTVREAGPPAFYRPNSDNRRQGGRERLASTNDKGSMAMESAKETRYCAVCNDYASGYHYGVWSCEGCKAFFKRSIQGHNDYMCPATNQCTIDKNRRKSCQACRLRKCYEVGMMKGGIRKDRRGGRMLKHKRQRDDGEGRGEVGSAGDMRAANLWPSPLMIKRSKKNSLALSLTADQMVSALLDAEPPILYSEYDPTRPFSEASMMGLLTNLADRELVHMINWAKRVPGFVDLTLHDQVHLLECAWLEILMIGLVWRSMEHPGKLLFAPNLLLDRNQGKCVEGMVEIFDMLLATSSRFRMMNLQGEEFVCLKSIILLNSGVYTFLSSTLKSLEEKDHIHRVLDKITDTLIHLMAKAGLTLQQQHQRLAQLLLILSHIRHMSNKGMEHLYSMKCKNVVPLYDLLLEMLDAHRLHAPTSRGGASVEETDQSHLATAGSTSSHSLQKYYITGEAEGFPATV

Test [3] concerns the target Gamma-aminobutyric acid receptor subunit alpha-1 (Rattus norvegicus, UniProt P62813).
The target of test [4] is T4, 5-hydroxytryptamine receptor 3A (Homo sapiens, UniProt P46098).
T4 sequence (P46098 whole entry): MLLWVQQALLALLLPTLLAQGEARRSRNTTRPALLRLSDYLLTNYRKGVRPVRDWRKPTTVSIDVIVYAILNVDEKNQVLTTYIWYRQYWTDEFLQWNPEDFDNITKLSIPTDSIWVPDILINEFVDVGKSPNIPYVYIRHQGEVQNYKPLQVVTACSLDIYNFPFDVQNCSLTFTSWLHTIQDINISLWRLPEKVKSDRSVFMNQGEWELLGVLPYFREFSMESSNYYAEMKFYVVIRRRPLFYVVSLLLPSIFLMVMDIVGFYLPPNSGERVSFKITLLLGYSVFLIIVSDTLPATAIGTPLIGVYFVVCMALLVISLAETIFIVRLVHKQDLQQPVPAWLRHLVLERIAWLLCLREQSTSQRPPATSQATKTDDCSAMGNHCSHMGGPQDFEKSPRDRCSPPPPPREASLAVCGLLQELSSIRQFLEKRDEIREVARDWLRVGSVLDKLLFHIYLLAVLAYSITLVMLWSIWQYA
Format: functional.

In test [5] the target is Voltage-gated inwardly rectifying potassium channel KCNH2 (Homo sapiens, UniProt Q12809). The class given is functional. As to conditions: read-out: AC50.
Sequence of Voltage-gated inwardly rectifying potassium channel KCNH2 (Q12809 whole entry): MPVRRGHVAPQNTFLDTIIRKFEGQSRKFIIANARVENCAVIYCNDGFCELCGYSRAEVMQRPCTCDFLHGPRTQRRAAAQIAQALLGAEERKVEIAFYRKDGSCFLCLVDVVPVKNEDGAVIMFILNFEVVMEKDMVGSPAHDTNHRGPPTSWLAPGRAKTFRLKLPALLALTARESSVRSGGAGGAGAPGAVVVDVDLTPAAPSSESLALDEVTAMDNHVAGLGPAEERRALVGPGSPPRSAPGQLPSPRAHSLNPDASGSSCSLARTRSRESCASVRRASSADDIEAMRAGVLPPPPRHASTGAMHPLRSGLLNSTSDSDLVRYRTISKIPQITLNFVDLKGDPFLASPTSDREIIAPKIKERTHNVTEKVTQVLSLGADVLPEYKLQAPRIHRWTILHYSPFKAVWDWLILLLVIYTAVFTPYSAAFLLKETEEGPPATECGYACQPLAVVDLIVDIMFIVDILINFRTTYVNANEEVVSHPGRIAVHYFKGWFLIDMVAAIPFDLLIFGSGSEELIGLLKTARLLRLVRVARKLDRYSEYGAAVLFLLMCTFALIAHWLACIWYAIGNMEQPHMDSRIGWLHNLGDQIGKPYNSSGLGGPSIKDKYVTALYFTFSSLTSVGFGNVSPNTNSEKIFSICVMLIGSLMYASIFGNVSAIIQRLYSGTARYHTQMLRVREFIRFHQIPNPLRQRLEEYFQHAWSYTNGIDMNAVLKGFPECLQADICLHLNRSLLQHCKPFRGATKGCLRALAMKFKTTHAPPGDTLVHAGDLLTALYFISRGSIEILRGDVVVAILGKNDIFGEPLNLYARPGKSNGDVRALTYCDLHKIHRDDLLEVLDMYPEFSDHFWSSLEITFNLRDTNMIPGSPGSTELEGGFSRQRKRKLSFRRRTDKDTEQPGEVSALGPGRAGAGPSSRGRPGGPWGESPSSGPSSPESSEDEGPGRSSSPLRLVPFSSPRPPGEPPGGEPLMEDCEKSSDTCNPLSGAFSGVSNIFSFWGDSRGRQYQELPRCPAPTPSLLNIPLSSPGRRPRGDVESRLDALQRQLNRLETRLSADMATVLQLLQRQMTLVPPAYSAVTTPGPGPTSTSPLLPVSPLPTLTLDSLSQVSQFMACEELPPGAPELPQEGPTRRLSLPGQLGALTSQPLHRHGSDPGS
Test [6] has as its target T5, Equilibrative nucleoside transporter 1 (Homo sapiens, UniProt Q99808).
T5 sequence (Q99808 whole entry): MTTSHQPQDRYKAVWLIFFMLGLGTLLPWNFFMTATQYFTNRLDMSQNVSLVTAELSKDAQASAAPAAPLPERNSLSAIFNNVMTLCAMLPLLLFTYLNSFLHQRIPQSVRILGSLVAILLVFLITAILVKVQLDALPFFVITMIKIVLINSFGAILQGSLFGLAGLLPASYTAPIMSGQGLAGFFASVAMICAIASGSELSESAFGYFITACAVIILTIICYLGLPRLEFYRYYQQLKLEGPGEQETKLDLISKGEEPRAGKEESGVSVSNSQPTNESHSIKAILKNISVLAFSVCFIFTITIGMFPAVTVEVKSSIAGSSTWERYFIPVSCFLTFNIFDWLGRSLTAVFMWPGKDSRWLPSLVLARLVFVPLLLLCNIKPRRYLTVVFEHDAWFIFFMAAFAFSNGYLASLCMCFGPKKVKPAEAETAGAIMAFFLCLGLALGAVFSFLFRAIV

The target in test [7] is Sodium-dependent noradrenaline transporter (Homo sapiens, UniProt P23975).
Sequence of Sodium-dependent noradrenaline transporter (P23975 whole entry): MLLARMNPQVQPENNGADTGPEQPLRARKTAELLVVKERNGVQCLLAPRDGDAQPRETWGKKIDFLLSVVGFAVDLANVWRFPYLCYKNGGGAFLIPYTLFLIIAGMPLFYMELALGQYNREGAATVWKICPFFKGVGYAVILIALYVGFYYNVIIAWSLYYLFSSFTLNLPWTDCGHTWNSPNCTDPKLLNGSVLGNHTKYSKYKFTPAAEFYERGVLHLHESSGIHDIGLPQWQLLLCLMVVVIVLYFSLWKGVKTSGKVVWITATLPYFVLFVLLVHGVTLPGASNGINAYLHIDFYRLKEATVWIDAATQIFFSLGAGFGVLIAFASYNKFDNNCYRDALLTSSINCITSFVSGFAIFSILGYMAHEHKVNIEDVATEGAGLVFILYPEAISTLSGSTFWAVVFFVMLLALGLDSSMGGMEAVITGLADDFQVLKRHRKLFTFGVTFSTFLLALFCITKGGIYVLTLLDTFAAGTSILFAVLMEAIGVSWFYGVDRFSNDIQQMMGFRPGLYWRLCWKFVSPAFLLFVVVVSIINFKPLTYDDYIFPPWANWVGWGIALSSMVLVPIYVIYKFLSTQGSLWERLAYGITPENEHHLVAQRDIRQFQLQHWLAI

We go through 13 molecules from ChEMBL document CHEMBL5291721, “A preclinical secondary pharmacology resource illuminates target-adverse drug reaction associations of marketed drugs” (Nat Commun, 2023).

“And” between values parts separate entries of the source, which are not always exact repeats. Equal entries are not always repeated.

As a reminder, the AC50 is the concentration at which the activity in the assay is half-maximal.
Further: assay procedure not described here.

Sequence of Adenosine receptor A2a (P29274 whole entry): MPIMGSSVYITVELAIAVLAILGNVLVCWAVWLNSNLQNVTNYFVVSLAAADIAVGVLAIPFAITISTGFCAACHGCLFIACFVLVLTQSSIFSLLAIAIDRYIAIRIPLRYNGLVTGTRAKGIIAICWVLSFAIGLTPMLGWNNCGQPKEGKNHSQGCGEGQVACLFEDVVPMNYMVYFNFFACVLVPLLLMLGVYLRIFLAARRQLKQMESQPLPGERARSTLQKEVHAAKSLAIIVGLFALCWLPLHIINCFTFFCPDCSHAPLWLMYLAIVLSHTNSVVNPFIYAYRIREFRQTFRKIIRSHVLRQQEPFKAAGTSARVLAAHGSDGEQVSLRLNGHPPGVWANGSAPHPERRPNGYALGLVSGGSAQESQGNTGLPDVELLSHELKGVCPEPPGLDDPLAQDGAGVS
Sequence of Gamma-aminobutyric acid receptor subunit alpha-1 (P62813 whole entry): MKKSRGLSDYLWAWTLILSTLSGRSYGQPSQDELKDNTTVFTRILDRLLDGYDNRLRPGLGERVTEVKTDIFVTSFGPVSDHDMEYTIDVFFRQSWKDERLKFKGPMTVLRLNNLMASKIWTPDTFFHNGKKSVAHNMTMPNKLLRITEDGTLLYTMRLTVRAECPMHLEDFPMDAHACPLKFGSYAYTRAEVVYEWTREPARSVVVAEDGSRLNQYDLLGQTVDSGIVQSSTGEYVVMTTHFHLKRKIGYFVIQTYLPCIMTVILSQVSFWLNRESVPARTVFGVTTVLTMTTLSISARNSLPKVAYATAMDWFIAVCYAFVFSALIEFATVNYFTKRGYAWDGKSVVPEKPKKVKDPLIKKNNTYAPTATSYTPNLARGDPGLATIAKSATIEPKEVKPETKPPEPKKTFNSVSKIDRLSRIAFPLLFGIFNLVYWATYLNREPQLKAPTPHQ

As for `COC1=C(OC)C(=O)C(CCCCCCCCCCO)=C(C)C1=O` [IDEBENONE], the AC50 is more than 30 µM at Adenosine receptor A2a; more than 30 µM in test [1]; more than 30 µM in test [2]; more than 30 µM on Estrogen receptor; more than 10 µM in test [3]; more than 10 µM in test [4]. The AC50 in test [5] is more than 30 µM; in test [6] it was 21.9 µM; in test [7], more than 10 µM.

Regarding `CCCC[C@H](C)C[C@H](O)/C=C/[C@H]1[C@H](O)CC(=O)[C@@H]1CCCC/C=C/C(=O)O` [LIMAPROST], the AC50 (on Adenosine receptor A2a; in test [1]; in test [2]; at Estrogen receptor; in [3]; in test [4]) was more than 30 µM throughout. Besides, the half-maximal activity concentration (AC50) in test [5], in test [6] and in test [7] was more than 30 µM each time.

With `Cc1ccc(NC(=O)C2(c3ccc4c(c3)OC(F)(F)O4)CC2)nc1-c1cccc(C(=O)O)c1` [LUMACAFTOR], the AC50 (at Adenosine receptor A2a; in test [1]; in [2]; at Estrogen receptor; in [3]; in test [4]) was more than 30 µM throughout. The AC50 in test [5], in [6] and in [7] was more than 30 µM in each case.

Consider `CC(=O)Nc1c(I)c(C(=O)N[C@H]2C(O)O[C@H](CO)[C@@H](O)[C@@H]2O)c(I)c(N(C)C(C)=O)c1I` (some centres not stated) [METRIZAMIDE], for which the AC50 on Adenosine receptor A2a is more than 10 µM; in [1], more than 30 µM; in [2], more than 10 µM; on Estrogen receptor it was more than 10 µM; in test [3], more than 30 µM; in test [4], more than 30 µM. For the same molecule, the AC50 in test [5] was more than 30 µM; in test [6], more than 10 µM; in test [7], more than 10 µM.

Regarding `CN(c1nccc(=O)[nH]1)C1CCN(c2nc3ccccc3n2Cc2ccc(F)cc2)CC1` [MIZOLASTINE], the half-maximal activity concentration (AC50) (on Adenosine receptor A2a; in test [1]; in test [2]; at Estrogen receptor; in test [3]; in test [4]) was more than 30 µM in each case. Further, the half-maximal activity concentration (AC50) is 3.34 µM in test [5], more than 30 µM in test [6] and more than 30 µM in test [7].

For the molecule `CCOC(=O)Nc1ccc2c(c1)N(C(=O)CCN1CCOCC1)c1ccccc1S2` [MORICIZINE], the AC50 (on Adenosine receptor A2a; in test [1]; in test [2]; on Estrogen receptor; in test [3]; in test [4]) was more than 30 µM in each case. In addition, the AC50 in test [5] was 19 µM; in [6] it was more than 30 µM; in test [7], more than 30 µM.

`CC(=O)c1ccc2c(c1)N(CCCN1CCC(CCO)CC1)c1ccccc1S2` [PIPERACETAZINE]: the concentration at half-maximal activity (AC50) (at Adenosine receptor A2a; in [1]; in [2]; at Estrogen receptor; in test [3]; in test [4]) was more than 30 µM throughout. Besides, the AC50 in test [5] was 0.5 µM; in test [6], more than 30 µM; in test [7], 1.8 µM.

As to `Cc1ccc(=O)n(-c2ccccc2)c1` [PIRFENIDONE], the concentration at half-maximal activity (AC50) (on Adenosine receptor A2a; in [1]; in [2]; at Estrogen receptor; in [3]; in test [4]) was more than 30 µM throughout. Besides, the concentration at half-maximal activity (AC50) in [5], in [6] and in test [7] was more than 30 µM in each case.

As to `NC(=O)CCC/N=C(\c1ccc(Cl)cc1)c1cc(F)ccc1O` [PROGABIDE], the AC50 on Adenosine receptor A2a is more than 10 µM; in test [1], more than 30 µM; in test [2], more than 10 µM; on Estrogen receptor, more than 10 µM; in test [3], more than 10 µM; in [4] it was more than 30 µM. For the same molecule, the concentration at half-maximal activity (AC50) is more than 30 µM in test [5], more than 10 µM in test [6] and more than 10 µM in test [7].

Regarding `CCCOC(C(=O)OC1CCN(C)CC1)(c1ccccc1)c1ccccc1` [PROPIVERINE], the half-maximal activity concentration (AC50) (at Adenosine receptor A2a; in test [1]; in test [2]; on Estrogen receptor; in test [3]; in test [4]) was more than 30 µM throughout. For the same molecule, the concentration at half-maximal activity (AC50) in [5] is 3.2 µM; in test [6] it was more than 30 µM; in test [7], more than 30 µM.

For `CC(NCCc1ccc(O)cc1)C(O)c1ccc(O)cc1` (configuration not stated) [RITODRINE], the concentration at half-maximal activity (AC50) (on Adenosine receptor A2a; in test [1]; in [2]; at Estrogen receptor; in test [3]; in test [4]) was more than 30 µM each time. Besides, the concentration at half-maximal activity (AC50) was more than 30 µM in test [5]; more than 30 µM in [6]; 23 µM and 37.6 µM in test [7].

Consider `[H]/N=C(/N)N[C@H]1[C@H](O)[C@@H](O)[C@H](O[C@@H]2O[C@@H](C)[C@](O)(C=O)[C@H]2O[C@@H]2O[C@@H](CO)[C@H](O)[C@@H](O)[C@@H]2NC)[C@@H](N/C(N)=N\[H])[C@@H]1O` [STREPTOMYCIN], for which the AC50 (at Adenosine receptor A2a; in test [1]; in [2]; on Estrogen receptor; in test [3]; in [4]) was more than 30 µM in each case. The AC50 in test [5], in test [6] and in [7] was more than 30 µM each time.

Regarding `Cc1cccc(N(C)C(=S)Oc2ccc3ccccc3c2)c1` [TOLNAFTATE], the concentration at half-maximal activity (AC50) at Adenosine receptor A2a is more than 10 µM; in test [1], more than 30 µM; in [2] it was more than 10 µM; at Estrogen receptor, more than 30 µM; in test [3] it was more than 10 µM; in test [4] it was more than 30 µM. Besides, the half-maximal activity concentration (AC50) in test [5] was more than 30 µM; in test [6], more than 10 µM; in test [7], more than 10 µM.
